Test results taken from PMC7005262, “Complete structure of the chemosensory array core signalling unit in an E. coli minicell strain” (Nature Communications, 2020).
pEC50: −log10 of the molar value.

Molecular target: T1, Tsr (Escherichia coli, UniProt P02942)
T1 construct: mixed adaptational modification states, CheR and CheB present; read-out by plasmid-borne CheY-YFP/CheZ-CFP
Assay: in vivo FRET kinase assay (CheY-YFP/CheZ-CFP), inhibition of receptor-coupled CheA activity, multi-site Hill fit
Assay type: cell-based
Settings: intact WM4196 minicells, motility buffer pH 7.0, adaptation enzymes CheR and CheB present; attractant at the periplasmic domain; read-out: K1/2

T1 sequence (P02942 whole entry): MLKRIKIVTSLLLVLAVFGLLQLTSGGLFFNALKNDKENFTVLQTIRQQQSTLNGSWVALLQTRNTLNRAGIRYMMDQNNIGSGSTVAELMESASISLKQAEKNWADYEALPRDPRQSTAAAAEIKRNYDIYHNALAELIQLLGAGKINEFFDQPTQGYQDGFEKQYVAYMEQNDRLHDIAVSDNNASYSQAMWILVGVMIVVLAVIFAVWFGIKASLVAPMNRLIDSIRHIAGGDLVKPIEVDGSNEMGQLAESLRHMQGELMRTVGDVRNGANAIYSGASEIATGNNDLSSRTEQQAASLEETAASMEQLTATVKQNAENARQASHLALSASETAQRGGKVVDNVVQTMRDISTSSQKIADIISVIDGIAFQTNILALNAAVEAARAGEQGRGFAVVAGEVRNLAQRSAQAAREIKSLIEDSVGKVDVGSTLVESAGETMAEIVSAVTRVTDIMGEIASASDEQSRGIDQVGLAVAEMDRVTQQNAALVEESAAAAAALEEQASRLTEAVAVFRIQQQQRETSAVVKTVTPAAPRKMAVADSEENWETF

Structure (SMILES): N[C@@H](CO)C(=O)O [serine]
- pEC50: 6.40
